{"source": "patent US20050143420A1", "about": "“Methods and compositions for the treatment and management of hemoglobinopathy and anemia” (priority 2003, published 2005)", "key": {"[1]": {"tested_on": "CD34+ progenitor cells", "assay": "Fetal hemoglobin induction in CD34+ cells with SCF and Epo, compared or combined with hydroxyurea and 5-azacytidine", "type": "cell-based", "conditions": "for fetal hemoglobin expression: flow cytometry", "procedure": "FIG. 10 depicts the increase in expression of fetal hemoglobin due to 4-(Amino)-2-(2,6-dioxo(3-piperidyl))-isoindoline-1,3-dione over that induced by hydroxyurea or 5-azacytidine. Cells were cultured for six days in the presence of SCF (50 ng/ml) and Epo (2 U/ml), and either DMSO (control), 4-(Amino)-2-(2,6-dioxo(3-piperidyl))-isoindoline-1,3-dione (0.1, 1, 10 μM), 5-azacytidine (0.1, 1 μM; toxic at 10 μM) or hydroxyurea (0.1, 1, 10 μM).\nAs previously, CD34^+ progenitor cells were first expanded with a combination of growth factors (SCF, Flt3-L and IL-3) for 6 days, and erythroid differentiation was then induced with SCF and Epo for 6 days. During the erythroid differentiation period CD34^+ cells were cultured in the presence or absence of IMiDs™, alone or in combination with either hydroxyurea and 5-azacytidine, in order to compare the effect of IMiDs™ to these two known inducers of fetal hemoglobin synthesis. On day 6 of differentiation, the hemoglobin content of the cells was measured by flow cytometry. […] The induction of fetal hemoglobin production was, however, more pronounced with IMiD in comparison to hydroxyurea or 5-azacytidine, with a 10 fold induction in the presence of 10 μM of 4-(Amino)-2-(2,6-dioxo(3-piperidyl))-isoindoline-1,3-dione."}, "[2]": {"tested_on": "BM-CD34+ progenitors", "assay": "Erythroid differentiation of expanded CD34+ cells with SCF and Epo; flow cytometry and cell counts", "type": "cell-based", "conditions": "6 days", "procedure": "Differentiation of bone marrow (BM) CD34^+ hematopoietic progenitor cells: BM-CD34^+ progenitors were obtained from Cambrex and cultured in Iscove's MDM with BIT 95000 (serum substitute; StemCell technologies) in the presence of growth factors. During the first 6 days CD34^+ cells were expanded with SCF (100 ng/ml), Flt3-L (100 ng/ml) and IL-3 (20 ng/ml), and then differentiated toward the erythroid lineage by culture in the presence of SCF (50 ng/ml), and Epo (2U or 4U/ml) for 6 days. To study the effect of IMiDs™, CD34^+ progenitors cells were differentiated for a period of 6 days in the presence or absence of 4-(Amino)-2-(2,6-dioxo(3-piperidyl))-isoindoline-1,3-dione or 3-(4-amino-1-oxo-1,3-dihydroisoindol-2-yl)-piperidine-2,6-dione. (FIG. 6)\nFlow cytometry: Surface antigen expression was analyzed by flow cytometry (FACScan, Coulter) after 6 days of culture. Cells were processed for double staining (30 min at 4° C.) at day 6 using FITC and PE conjugated monoclonal antibodies (mAbs). Antibodies used were: CD34-PE, CD36-FITC, CD71-FITC and Glycophorin A-PE, all from BD Pharmingen (San Diego, Calif.). After 6 days of culture, cells were washed with phosphate-buffered saline (PBS), fixed with 2% paraformaldehyde, permeabilized with cytopermeafix (BD Pharmingen) and stained with HbF-PE (BD Pharmingen, San Diego, Calif.), Hbε-FITC (Cortex Biochem, San Leandro, Calif.) mAbs and HbA-FITC (Perkin Elmer) and analyzed by flow cytometry (FACScan, Coulter or FCASAria, BD Pharmingen)."}, "[3]": {"tested_on": "BM-CD34+ cells", "assay": "CD34+ cell differentiation with SCF, Flt3-L, GM-CSF and TNFα; flow cytometry of erythroid markers", "type": "cell-based", "conditions": "0.01-100 μM, six days of culture", "procedure": "(§1) BM-CD34^+ cells were obtained from Cambrex (East Rutherford, N.J.) and cultured in Iscove's MDM with BIT 95000 (StemCell Technologies, UK) in the presence of stem cell factor (SCF), Flt3-L, granulocyte macrophage-colony stimulating factor (GM-CSF) and TNFα for 6 days. To study the effect of 4-(Amino)-2-(2,6-dioxo(3-piperidyl))-isoindoline-1,3-dione on the generation of dendritic cells, CD34^+ progenitor cells were cultured with or without 4-(Amino)-2-(2,6-dioxo(3-piperidyl))-isoindoline-1,3-dione for a period of 6 days. Phenotypic characterization of the cells for erythroid markers (CD36, CD71, glycophorin A and fetal hemoglobin) was established by flow cytometry after six days of culture. Gene expression was monitored by microarray analysis at day 1, day 3 and day 6 of CD34^+ differentiation (FIG. 1)."}, "[4]": {"tested_on": "BM-CD34+ cells", "assay": "CD34+ cell differentiation with SCF, Flt3-L, GM-CSF and TNFα; microarray gene expression", "type": "cell-based", "procedure": "as §1\nRNA purification and microarray analysis. Total RNA was isolated from CD34^+ cells using RNAeasy (Qiagen). Affymetrix U133A gene chips were used for gene expression analysis. Briefly, double-stranded cDNA was synthesized using 5 μg of total RNA. Biotin-labeled cRNA was synthesized using MessageAmp aRNA kit (Ambion), 15 μg of cRNA was fragmented and hybridized to each array. The above procedures were done twice for each RNA sample to obtain replicate biotin-labeled probes. The results from the replicate chips were averaged for calculation of the fold differences."}, "[5]": {"tested_on": "STAT5", "assay": "Epo-induced STAT5 phosphorylation in UT-7 cells", "type": "cell-based, human", "conditions": "10 μM, 45 min pre-incubation, Epo 10 U/ml for 10 minutes", "text": "To further characterize the synergy of Epo and IMiDs™ on erythroid cells, we have performed signaling experiments in a UT-7 cell line, in particular, to determine the effect if IMiDs on the expression of STAT5, which is known to be activated upon the binding Epo to the erythropoietin receptor (EpoR). UT-7 is a human leukemia cell line absolutely dependent upon erythropoietin for proliferation, and was isolated from a patient with acute myeloid leukemia (AML M7). The level of EpoR expression in these cells is around 60%.\nTo study the role of IMiDs™ in Epo signaling, we stimulated UT-7 cells with Epo in the presence or absence of 4-(Amino)-2-(2,6-dioxo(3-piperidyl))-isoindoline- 1,3-dione as follows. UT-7 cells were expended in RPMI medium with 10% FBS and GM-CSF (5 ng/ml). The cells were serum and growth factor starved overnight, then pre-incubated for 45 minutes with 10 μM of 4-(Amino)-2-(2,6-dioxo(3-piperidyl))-isoindoline-1,3-dione or DMSO control, and stimulated with Epo (10 U/ml) for 10 minutes. 4-(Amino)-2-(2,6-dioxo(3-piperidyl))-isoindoline-1,3-dione increased Epo-induced STAT5 (Tyr694) phosphorylation by 2 fold (FIG. 12). This effect was detected within 10 minutes of stimulation with Epo."}, "[6]": {"assay": "Cardiovascular and respiratory function in anesthetized dogs", "type": "in vivo, Beagle dogs", "procedure": "The effects of 3-(4-amino-1-oxo-1,3-dihydro-isoindol-2-yl)-piperidine-2,6-dione on cardiovascular and respiratory function are investigated in anesthetized dogs. Two groups of Beagle dogs (2/sex/group) are used. One group receives three doses of vehicle only and the other receives three ascending doses of 3-(4-amino-1-oxo-1,3-dihydro-isoindol-2-yl)-piperidine-2,6-dione (2, 10, and 20 mg/kg). In all cases, doses of 3-(4-amino-1-oxo-1,3-dihydro-isoindol-2-yl)-piperidine-2,6-dione or vehicle are successively administered via infusion through the jugular vein separated by intervals of at least 30 minutes."}}, "data": [{"molecule": "Nc1ncn([C@@H]2O[C@H](CO)[C@@H](O)[C@H]2O)c(=O)n1", "note": "[5-azacytidine, reference compound]", "values": [{"measurement": "toxicity to cultured CD34+ cells", "setting": "[1]; 10 μM", "value": "toxic"}, {"measurement": "fetal hemoglobin expression", "setting": "[1]; day 6 of differentiation", "value": "increased fetal hemoglobin expression"}]}, {"molecule": "NC(=O)NO", "note": "[Hydroxyurea, hydroxyurea, reference compound]", "values": [{"measurement": "fetal hemoglobin expression", "setting": "[1]; day 6 of differentiation", "value": "increased fetal hemoglobin expression"}]}, {"molecule": "Nc1cccc2c1C(=O)N(C1CCC(=O)NC1=O)C2=O", "note": "(stereo not shown) [4-(Amino)-2-(2,6-dioxo(3-piperidyl))-isoindoline-1,3-dione]", "values": [{"measurement": "adult hemoglobin (HbA) expression", "setting": "[2]", "value": "decrease"}, {"measurement": "induction of hemoglobin F in erythroid precursors", "setting": "[2]", "value": "potent inducers of hemoglobin F"}, {"measurement": "cells expressing fetal hemoglobin", "setting": "[2]; 0.001-10 μM, vs DMSO", "value": "increase"}, {"measurement": "expression of glycophorin A", "setting": "[2]; FACS", "value": "slight decrease"}, {"measurement": "expression of fetal hemoglobin", "setting": "[3]", "value": "increased in a dose-dependent manner"}, {"measurement": "expression of glycophorin A", "setting": "[3]", "value": "increased in a dose-dependent manner"}, {"measurement": "expression of genes encoding glycophorin B, rhesus blood group associated glycoprotein, Kell blood group precursor, EDRF/AHSP, erythroid Kruppel-like transcription factor", "setting": "[4]; SCF, Flt3-L, GM-CSF and TNFα", "value": "upregulated"}, {"measurement": "gene expression profile of erythroid-specific genes", "setting": "[4]; SCF, Flt3-L, GM-CSF and TNFα", "value": "upregulated"}, {"measurement": "increase of embryonic hemoglobin ε gene expression", "setting": "[4]; day 6 of CD34+ differentiation, vs DMSO", "value": 18, "unit": "fold"}, {"measurement": "induction of fetal hemoglobin production", "setting": "[1]; 10 μM, day 6 of differentiation", "value": 10, "unit": "fold"}, {"measurement": "fetal hemoglobin expression in combination with hydroxyurea", "setting": "[1]; combination with hydroxyurea, six days, SCF and Epo", "value": "striking synergy"}, {"measurement": "increase of Epo-induced STAT5 (Tyr694) phosphorylation", "setting": "[5]", "value": 2, "unit": "fold"}]}, {"molecule": "Nc1cccc2c1CN(C1CCC(=O)NC1=O)C2=O", "note": "(stereo not shown) [3-(4-amino-1-oxo-1,3-dihydroisoindol-2-yl)-piperidine-2,6-dione]", "values": [{"measurement": "induction of hemoglobin F in erythroid precursors", "setting": "[2]", "value": "potent inducers of hemoglobin F"}, {"measurement": "expression of fetal hemoglobin", "setting": "[3]", "value": "increased in a dose-dependent manner"}, {"measurement": "expression of glycophorin A", "setting": "[3]", "value": "increased in a dose-dependent manner"}, {"measurement": "cardiovascular and respiratory changes", "setting": "[6]; 2, 10 and 20 mg/kg by jugular vein infusion, vs vehicle", "value": "minimal at all doses"}, {"measurement": "deviations in femoral blood flow, respiratory parameters, and Qtc interval", "setting": "[6]; common to control and treated groups", "value": "not considered treatment-related"}, {"measurement": "duration of the arterial blood pressure increase", "setting": "[6]; low dose, not seen at higher doses", "value": "approximately 15 minutes"}, {"measurement": "arterial blood pressure", "setting": "[6]; low dose, small increase from 94 mmHg", "value": 101, "unit": "mmHg"}]}]}
